Measured values reported in patent US20220378763A1, “COMPOUND FOR TREATMENT OF ACUTE INFLAMMATION IN THE MYOCARDIUM” (CALPROTECT AB, priority 2019, published 2022).

Legend:
[1] = system: C57BL/6 mice with MI induced by permanent coronary artery ligation; assay: Flow cytometry of myeloid cells and BrdU incorporation on day 2 post-MI; assay type: in vivo, mouse
Procedure: Immune cells from blood, spleen, heart and bone-marrow were collected at 2 or 7 days post-MI, and analysed by flow-cytometry. Mice were anesthetized by intraperitoneal injection of a mixture of xylazine (10 mg/kg) and ketamine (100 mg/kg). After 10 minutes, blood was collected by cardiac punction. Thereafter, the spleen was removed and the heart was perfused with 5 ml ice-cold PBS. Perfused hearts were excised and collected into tubes with PBS and kept on ice. Femurs and tibias from each mouse were used to obtain whole bone marrow for analysis. Blood was stained with fluorochrome-labelled antibodies against mouse monocyte and neutrophil markers diluted in MACS buffer (PBS, 10% FCS and 0.5% BSA), followed by treatment with erythrocyte lysis buffer, washing and analysis. Spleens were mashed trough a cell strainer in ice-cold PBS. Hearts were cut into small pieces and placed into tubes containing 2.5 ml digestion cocktail (Collagenase I, 450 U/ml; Collagenase XI, 125 U/ml; DNAase I, 60 U/ml; Hyaluronidase type 1-5, 60 U/ml diluted in PBS containing Ca and Mg) incubated for 1 h at 37° C. with shaking at 220 rpm. Bone marrow was flushed from femur and tibia using ice-cold PBS. Cell suspensions from spleen, heart and bone marrow were filtered through a 40 um cell strainer (BD), treated with erythrocyte lysis buffer, washed and stained. For intracellular staining, cells were fixed, permeabilized and stained. Cell populations were analyzed by flow cytometry in a Gallios Flow Cytometer (Backman Coulter), and the results were analyzed using FlowJo (FlowJo®, LLC; Tree Star). The following anti-mouse antibodies were used for the flow cytometric analysis: anti-CD45 (30-F11), anti-CD11b (M1/70), anti-Ly6C (HK1.4), anti-CD115 (AFS98), anti-Ly6G (1A8), anti-F4/80 (BM8), anti-CCR2 (475301), anti-Ter119 (TER119), anti-Gr1 (RB6-8C5), anti-CD45R/B220 (RA3-6B2), anti-CD3ξ (145-2C11), anti-NK1.1 (PK136), anti-Ly6A/E (Sca-1) (E13-1617), anti-CD117 (c-kit) (2B8), anti-CD48 (HM48.1), anti-CD150/SLAM (TC15-12F12.2), anti-CD16/32 (93), anti-CD34 (MEC14.7) (all from BioLegend, San Diego, Calif., USA); anti-MerTK (DSSMMER) and anti-Nur77 (12.14) (eBioscience).
Mice were injected intraperitoneally with 1 mg BrdU 24 hours prior to organ harvest. Intracellular BrdU staining was performed in hematopoietic stem cells collected from the bone marrow using BrdU flow kits (BD Pharmigen™), according to the manufacturer instructions. BrdU expression was analysed by flow cytometry.
Neutrophilia and monocytosis, elevated circulating numbers of neutrophils and monocytes, have been associated with an adverse prognosis in MI patients. We studied the effects of S100A9 blockade on myeloid cell populations in blood, heart, and myeloid organs on day 2 post-MI, at the peak of the acute inflammatory period. The gating strategy is described in FIG. 8.

[2] = system: Nur77 response elements NBRE and NurRE in RAW264.7 macrophages; assay: Nur77 activity luciferase reporter assay in RAW264.7 macrophages stimulated with S100A9; assay type: cell-based, mouse; settings: S100A9 20 μg/mL, ABR-238901 100 μM, 16 hours
Procedure: Low-passage RAW264.7 mouse macrophages (ATCC #TIB-71) were seeded at 125.000 cells/mL in DMEM medium containing 2 mM L-glutamine (Gibco), 10% Fetal Calf Serum (Gibco), and 1% penicillin/streptomycin (Invitrogen). The next day, cells were transfected with pXP1-NurRE-fluc or pGL2-4xNBRE-fluc firefly luciferase Nur77 reporter constructs using Lipofectamine LTX with PLUS reagent (Invitrogen) according to manufacturer's instructions. pRluc-N3, which constitutively expresses Renilla luciferase from the CMV promoter, was co-transfected as an internal control to verify transfection efficiency. Extracellular S100A9 (20 μg/mL) was incubated in the presence of 10 μM ZnCl2 (Sigma) for 15 minutes with or without 100 μM of ABR-238901, and added to the cells 4 hours after transfection. After 16 hours of stimulation, the cells were washed and firefly and Renilla luciferase activities were determined using the Dual-Luciferase Reporter Assay System and a GloMax luminescent plate reader (both Promega).

[3] = system: BALB/c mice with induced myocarditis; assay: Myocarditis induced by cardiac α-myosin peptide: flow cytometry of heart and heart-draining lymph nodes; assay type: in vivo, mouse; settings: day 21
Procedure: Animal care, induction of myocarditis and treatments were performed as described above (Example 11) (n=10 mice per group). The mice were sacrificed on day 21, and hearts and mediastinal heart-draining lymph nodes were isolated.
Single cell suspensions were obtained from the organs by mechanic sectioning and enzymatic digestion, and the cells were stained with fluorescently-conjugated antibodies for analysis by flow cytometry. After euthanization, the mice were perfused intra-cardially with 20 ml ice-cold PBS, hearts and mediastinal lymph nodes were harvested and placed in PBS on ice. Hearts were cut in small pieces for 2 min while placed in digestion mixture containing 450 U/ml Collagenase I-S (Sigma-Aldrich, C0130), 125 U/ml Collagenase XI (Sigma-Aldrich, C7657), 60 U/ml Hyaluronidase Type I-S(Sigma-Aldrich H3506), 60 U/ml DNAse I (Sigma-Aldrich, DN25), and 20 mM HEPES (Fischer Scientific, SH3023701) in PBS, and thereafter incubated for 1 h at 37° C. with gentle agitation. Enzymatically-digested tissues were passed through a 70 μm cell strainer and washed twice with PBS. Mediastinal lymph nodes were passed through a 70 μm cell strainer and washed twice with PBS before staining. Single cell suspensions were stained in PBS with Zombie Aqua live/dead (BioLegend, 423102) for 10 min at RT followed by extracellular staining in FC-buffer (PBS, 0.5% BSA and 20 mM EDTA) with fluorescently-conjugated antibodies for 20 min on ice. The following monoclonal antibodies were used: anti-CD3ε (clone 145-2C11), anti-CD4 (clone OKT4), anti-CD8 (clone RPA-T8), anti-CD11b (clone EP1345Y), anti-CD11c (clone N418), anti-CD19 (clone 6D5), anti-CD44 (clone IM7), anti-CD45.2 (clone 104), anti-CD49b (clone DX5) anti-CD62L (clone MEL-14), […], anti-CD69 (clone X54-5/7.1), anti-CD115 (clone AFS98), anti-Ly-6C (clone HK1.4), anti-Ly-6G (clone 1A8), anti-MerTK (clone DS5MMER), anti-MHCII (clone M5/114.15.2), anti-Siglec-F (clone E50-2440). Appropriate single stains were performed using AbC Total Antibody Compensation Bead kit (Thermo Fischer Scientific) or with cells for live/dead. Flow cytometry analysis was done using a Gallios Flow Cytometer (Beckman Coulter) and data was analyzed using the FlowJo software (Tree Star).

Which “Number of Ly6Chi monocytes in the bone marrow” value ([1]; 2 days treatment post-MI) does the source give for `COc1ncc(S(=O)(=O)Nc2cncc(Cl)c2O)cc1Br` [ABR-238901, 5-bromo-N-(5-chloro-4-hydroxypyridin-3-yl)-6-methoxypyridine-3-sulfonamide] here?
Its value is “increased”.

What about the “Numbers of proliferating BrdU+ Lin−Sca+Kit+CD150+CD48− hematopoietic stem cells” value ([1]; bone marrow, 24 h after BrdU) of the same compound?
The value was “reduced”.

What about the “Numbers of macrophages in the heart” value ([1]; day 2 post-MI) of the same compound?
Its value is “lower”.

And the “Numbers of monocytes in the bone marrow” value ([1]; day 2 post-MI)?
Its value is “significantly higher”.

What about the “Numbers of monocytes in the spleen” value ([1]; day 2 post-MI) of the same compound?
The value was “did not have a significant effect”.

What about the “Numbers of neutrophils in the spleen” value ([1]; day 2 post-MI) of the same compound?
Its value is “did not have a significant effect”.

What about the “Neutrophil counts in the bone marrow” value ([1]; day 2 post-MI, vs MI control) of the same compound?
Its value is “highly increased”.

What about the “Numbers of neutrophils in blood” value ([1]; day 2 post-MI, vs MI control) of the same compound?
Its value is “significantly lowered”.

What about the “Numbers of neutrophils in myocardium” value ([1]; day 2 post-MI, vs MI control) of the same compound?
Its value is “significantly lowered”.

What about the “S100A9-induced increase of Nur77 activity (NBRE and NurRE luciferase reporters)” value [2] of the same compound?
Its value is “inhibited”.

And the “Cardiac eosinophil infiltration, percent of live CD45+ leukocytes” value [3]?
Its value is 7.5%.

What about the “Effector memory (CD44+CD62L−) CD4+ T cells in heart-draining lymph nodes, percent of live CD45+CD3+ T cells” value [3] of the same compound?
The value was 15.9%.

And the “Effector memory (CD44+CD62L−) CD8+ T cells in heart-draining lymph nodes, percent of live CD45+CD3+ T cells” value [3]?
Its value is 23.3%.

What about the “Infiltration of cDCs in the heart, % of live CD45+ leukocytes” value [3] of the same compound?
The value was 5.7%.

And the “Total CD3+ T cells in heart-draining lymph nodes, % of live CD45+ leukocytes” value [3]?
The value was 59.5%.
